The text below walks through data of US8530679B2, “Delta 9—tetrahydrocannabinol processing” (Resolution Chemicals Limited, priority 2007, dated 2013).

For data set [1] the following is noted: cited from earlier work; for psychomimetic activity: constituents of cannabis.
Data set [2] can be described thus: stability of Δ9-THC on handling and storage. The note with it: solution prepared below room temperature, typically below 0° C., in some instances −40° C. and even −78° C.
For data set [3] the following is noted: susceptible to rearrangement and oxidation; cited from earlier work.

In the case of `C=C(C)[C@@H]1CCC(C)=C[C@H]1c1c(O)cc(CCCCC)cc1O` [Cannabidiol], the psychomimetic activity result in data set [1] is on record as “little activity”.

`CCCCCc1cc(O)c2c(c1)OC(C)(C)[C@@H]1CCC(C)=C[C@@H]21` [Δ9-THC, Δ9-tetrahydrocannabinol]: the “stability / degradation in solution of low boiling point solvent” value in data set [2] is recorded as “no significant degradation”. Also, the “psychomimetic activity relative to Δ8-THC” value in data set [1] (greater than Δ8-THC) was 20 times. Moreover, the “stability at room temperature” value in data set [3] was “relatively unstable”.

In the case of `CCCCCc1cc2c(c(O)c1C(=O)O)[C@@H]1C=C(C)CC[C@H]1C(C)(C)O2` [THCA-A, Δ9-THC carboxylic acid], in data set [1], the psychomimetic activity entry was “psychomimetically inactive”.
